Data taken from ChEMBL document CHEMBL1201862, “PubChem BioAssay data set” (2004).
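Each compound was tested at five concentrations against cells in 96-well plates for 48 hours. The concentration for 50% growth inhibition is given as GI50.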 Calls of active or inactive are those of the source. Rule as the data show it: active = GI50 up to about 1.1 µM and inactive = higher.

Tests used:
Experiment in all cases: DTP human tumour cell line panel, 48 h
HCC 2998 = test system: HCC 2998
LOX IMVI = test system: LOX IMVI
U-251 = test system: U-251
IGROV-1 = test system: IGROV-1
UO-31 = test system: UO-31
UACC-62 = test system: UACC-62
OVCAR-3 = test system: OVCAR-3
SK-MEL-28 = test system: SK-MEL-28
SNB-19 = test system: SNB-19
K562 = test system: K562
SN12C = test system: SN12C
SF-295 = test system: SF-295
RXF 393 = test system: RXF 393
RPMI-8226 = test system: RPMI-8226
Malme-3M = test system: Malme-3M
PC-3 = test system: PC-3
OVCAR-8 = test system: OVCAR-8
DU-145 = test system: DU-145
BT-549 = test system: BT-549
OVCAR-4 = test system: OVCAR-4

SMILES	GI50 (HCC 2998)	GI50 (LOX IMVI)	GI50 (U-251)	GI50 (IGROV-1)	GI50 (UO-31)	GI50 (UACC-62)	GI50 (OVCAR-3)	GI50 (SK-MEL-28)	GI50 (SNB-19)	GI50 (K562)	GI50 (SN12C)	GI50 (SF-295)	GI50 (RXF 393)	GI50 (RPMI-8226)	GI50 (Malme-3M)	GI50 (PC-3)	GI50 (OVCAR-8)	GI50 (DU-145)	GI50 (BT-549)	GI50 (OVCAR-4)
Nc1ncnc2c1nc(Cl)n2[C@@H]1O[C@@H]2COP(=O)(O)O[C@H]2[C@H]1O [TOCLADESINE]	37800 nM (inactive)	2700 nM (inactive)	67800 nM (inactive)	24500 nM (inactive)	16400 nM (inactive)	15700 nM (inactive)	44900 nM (inactive)	295000 nM (inactive)	122000 nM (inactive)	2820 nM (inactive)	12600 nM (inactive)	51200 nM (inactive)	7350 nM (inactive)	6470 nM (inactive)	152000 nM (inactive)	8300 nM (inactive)	5420 nM (inactive)	12500 nM (inactive)	5690 nM (inactive)	16600 nM (inactive)
CCN(CC)c1ccc(C(=C2C=CC(=[N+](CC)CC)C=C2)c2ccc(N(CC)CC)cc2)cc1	186 nM (active)	54.1 nM (active)	41.2 nM (active)	146 nM (active)	212 nM (active)	219 nM (active)	39.3 nM (active)	489 nM (active)	101 nM (active)	35.3 nM (active)	52.2 nM (active)	48.3 nM (active)	180 nM (active)	34.2 nM (active)	148 nM (active)	42.3 nM (active)	39.1 nM (active)	70.8 nM (active)	33.2 nM (active)	234 nM (active)
CC(C)OC(=O)OCSc1ccccc1/N=C/c1cccc([N+](=O)[O-])c1	> 10000 nM (inactive)	> 10000 nM (inactive)	> 10000 nM (inactive)	> 10000 nM (inactive)	> 10000 nM (inactive)	> 10000 nM (inactive)	> 10000 nM (inactive)	> 10000 nM (inactive)	> 10000 nM (inactive)	> 10000 nM (inactive)	> 10000 nM (inactive)	> 10000 nM (inactive)	> 10000 nM (inactive)	> 10000 nM (inactive)	> 10000 nM (inactive)	> 10000 nM (inactive)	> 10000 nM (inactive)	> 10000 nM (inactive)	> 10000 nM (inactive)	> 10000 nM (inactive)
CC1c2cc(c3c(c2O)CN([C@@H](C)C2CCCCC2)CO3)C(C)c2cc(c3c(c2O)CN([C@@H](C)C2CCCCC2)CO3)C(C)c2cc(c3c(c2O)CN([C@@H](C)C2CCCCC2)CO3)C(C)c2cc1c1c(c2O)CN([C@@H](C)C2CCCCC2)CO1 (stereo not given in full)	1450 nM (inactive)	681 nM (active)	964 nM (active)	1320 nM (inactive)	1810 nM (inactive)	1800 nM (inactive)	1710 nM (inactive)	1760 nM (inactive)	1610 nM (inactive)	369 nM (active)	962 nM (active)	1800 nM (inactive)	2440 nM (inactive)	414 nM (active)	1450 nM (inactive)	1770 nM (inactive)	1150 nM (inactive)	1350 nM (inactive)	1770 nM (inactive)	929 nM (active)
CCN(CC)CCCNc1ncc(C)c2c1c1ccc3c(O)cccc3c1n2C	798 nM (active)	1290 nM (inactive)	1100 nM (active)	1960 nM (inactive)	7890 nM (inactive)	18000 nM (inactive)	3870 nM (inactive)	9820 nM (inactive)	1070 nM (active)	1500 nM (inactive)	2700 nM (inactive)	1730 nM (inactive)	1950 nM (inactive)	1470 nM (inactive)	14700 nM (inactive)	687 nM (active)	1430 nM (inactive)	1570 nM (inactive)	1890 nM (inactive)	1660 nM (inactive)
Cc1nc2ccccc2n1CCc1nc2ccccc2[nH]1	> 100000 nM (inactive)	> 100000 nM (inactive)	> 100000 nM (inactive)	> 100000 nM (inactive)	> 100000 nM (inactive)	> 100000 nM (inactive)	> 100000 nM (inactive)	> 100000 nM (inactive)	> 100000 nM (inactive)	> 100000 nM (inactive)	> 100000 nM (inactive)	> 100000 nM (inactive)	> 100000 nM (inactive)	> 100000 nM (inactive)	> 100000 nM (inactive)	> 100000 nM (inactive)	> 100000 nM (inactive)	> 100000 nM (inactive)	> 100000 nM (inactive)	> 100000 nM (inactive)
CC1CNC(c2cccc(-c3nc(-c4cccc(C5=NC(C)CN5)c4)nc(N(C)C)n3)c2)=N1 (stereo not given)	1130 nM (inactive)	1120 nM (inactive)	653 nM (active)	3280 nM (inactive)	3770 nM (inactive)	1820 nM (inactive)	1530 nM (inactive)	3130 nM (inactive)	752 nM (active)	682 nM (active)	948 nM (active)	3610 nM (inactive)	3210 nM (inactive)	2750 nM (inactive)	3870 nM (inactive)	671 nM (active)	2150 nM (inactive)	2090 nM (inactive)	3190 nM (inactive)	771 nM (active)
